Source: PMC6581923 (Journal of Molecular Neuroscience, 2018)
Entries after “also recorded” stand apart in the source; their conditions may differ.

Assays:
[1] = system: retina (BCCAO-induced retinopathy); assay: Retinal layer thickness / morphology after bilateral carotid artery occlusion (BCCAO), eye drops; assay type: in vivo, rat (male); settings: for Retinoprotective efficacy of eye drops, overall / compared with untagged peptide: topical eye drops in SOCB
Procedure: Adult male rat litters were housed in the animal facility in individual cages in a 12 h light-dark cycle with food and water ad libitum. Animal housing, care and application of experimental procedures were in accordance with institutional guidelines under approved protocols (No: BA02/2000–26/2017, University of Pecs). Under isoflurane anesthesia, common carotid arteries were exposed on both sides through a midline incision and then ligated with a 3–0 filament. A group of animals (sham group) underwent all steps of the operating procedure except ligation of the carotid arteries. Immediately following the operation, the right eye of the animals was treated with derivatives of PACAP (PACAP-TAT /n = 17/ or VIP-TAT /n = 17/) eye drops (1 μg/drop). Dose and schedule of the eye drop treatments were based on our previous experiments (Werling et al. [2016]). In the experiment for histological analysis, the different derivatives were dissolved in benzalkonium solution for ophthalmic use (solutio ophthalmica cum benzalkonio (SOCB)). The left eye, serving as a control, was treated with vehicle containing neither PACAP-TAT nor VIP-TAT. Animals were treated for five consecutive days, twice a day with one drop of drug, under brief isoflurane anesthesia (max. 5 min).
Fourteen days after the operation, rats (n = 10 SHAM and n = 24 BCCAO) were killed with anesthetic and the eyes were processed for histology. The eyes were removed and the retinas were solved in phosphate buffered saline (PBS), fixed in 4% paraformaldehyde dissolved in 0.1 M phosphate buffer (PB) (Sigma, Budapest, Hungary) and embedded in Durcupan ACM resin (Sigma, Budapest, Hungary). Retinas were cut at 2 μm and stained with toluidine blue dye (Sigma, Hungary). Sections were mounted in DPX medium (Sigma, Hungary) and photographs were taken with a digital CCD camera using the Spot program. Central retinal areas within 1 mm from the optic nerve were used (n = 5 measurements from one tissue block). The following parameters were measured: (i) cross-section of the retina from the outer limiting membrane (OLM) to the inner limiting membrane (ILM), (ii) the width of individual retinal layers (outer nuclear layer [ONL], outer plexiform layer [OPL], inner nuclear layer [INL], inner plexiform layer [IPL]), (iii) the number of cells/100 μm section length in the GCL, and the (iv) number of cells/[…]. Results are presented as mean ± SEM. Statistical comparisons were made using the two-way ANOVA test followed by Tukey’s post hoc analysis.
(§1) Fig. 4 Quantification of retinal layers in SHAM+SOCB, in SHAM+PACAP-TAT, in BCCAO+SOCB, and in BCCAO+PACAP-TAT animals; the right eye was treated with PACAP-TAT eye drops, the left eye served as controls receiving only SOCB. Comparison of all retinal layers (a–e). […] Statistical significance (*p < 0.05 vs. SHAM+SOCB retinas, #p < 0.05 vs. BCCAO+SOCB retinas) was calculated by two-way ANOVA followed by Fischer’s post hoc test
as §1, with “6” for “4”, “SHAM+VIP-TAT,” for “SHAM+PACAP-TAT,”, “BCCAO+VIP-TAT” for “BCCAO+PACAP-TAT”, “VIP-TAT” for “PACAP-TAT”, “control” for “controls”

[2] = Efficiency of Traversing Eye to Retina (EtE) of FITC labeled peptides given in eye drops; assay type: in vivo, rat (male)
Procedure: In order to trace the drugs, peptides were labeled with fluorescein isothiocyanate (FITC) using a FITC Protein Labeling Kit from ChangRu Biotech Ltd. (Guangzhou, China) according to the manufacturer’s protocol. After the labeling reaction, gel filtration was used to remove the free FITC. In order to determine the amount of the residual free FITC, the peptides were submitted to ultrafiltration using Amicon Ultra – 0.5 mL (Millipore, USA) with a molecular sieve of 2000 Da. After centrifugation (1000×g, 10 min) the peptide was subjected to fluorescence measurements performed with the multi-wavelength scanner Victor 3 (GE, USA) at the excitation of 495 nm and the emission of 520 nm. Protein concentrations were determined using the K4000 Bradford Protein Quantification Kit (Innovative, Guangzhou, China). The labeling efficiency was calculated using the following formula: label efficiency (LE) = fluorescence value (FV)/peptide mass (mol) (PM), representing the fluorescence intensity (AU) per mol of peptide (mol).
Male rats with body weight from 160 to 180 g were purchased from the Medical and Experimental Animal Center (Guangdong, China). Rats were randomly assigned to one of the experimental groups (7 rats per group) and subjected to eye drops with FITC labeled peptides (100 nmol/kg) and PBS as control. Rats were sacrificed by anesthesia 2 h after the eye drop administration and the retina was separated, weighed, washed three times with PBS and divided into two parts. One part was prepared on the glass slide with glycerin and subjected to fluorescence microscopic observation of FITC with 495 nm excitation/520 nm emission. All images, focused on the left upper regions of the retina, were taken with 500 ms exposure time. The other part of the retina was subjected to grinding and ultrasonication in PBS at a concentration of 100 mg weight tissue per milliliter of PBS. The supernatant was collected by centrifugation and the fluorescence intensity in the supernatant (100 uL) was determined. The valid fluorescence intensity (FI) for each sample treated with FITC labeled peptide was corrected by subtracting the fluorescence value of the sample treated with PBS, which was used as a blank background. The Efficiency of Traversing Eye to Retina (EtE) was expressed as the percentages of the FITC labeled peptide mass in the retina to the total FITC labeled peptide mass. The EtE was calculated using the following formula: EtE = tFI/LE/PW × 100% (tFI presents the fluorescence intensity of retina (arbitration unit, AU); LE presents the label efficiency of each peptide which has been determined above; PW presents the peptide mass (mole)).
Fig. 1 The efficiency of FITC labeled PACAP/PACAP-TAT (a, b) and VIP/VIP-TAT (c, d) traversing to retina given in eye drops. The retina was separated 2 h after the eye drops and submitted to the fluorescence microscopic observation of FITC fluorescence signal (A, C) and the calculation of Efficiency of Traversing Eye to Retina (EtE) (b, d). The data are means ± SEM of four experiments

## CC[C@H](C)[C@H](NC(=O)[C@H](CO)NC(=O)[C@H](CC(N)=O)NC(=O)[C@H](CC(C)C)NC(=O)[C@H](Cc1ccc(O)cc1)NC(=O)[C@H](CCCCN)NC(=O)[C@H](CCCCN)NC(=O)[C@@H](NC(=O)[C@H](C)NC(=O)[C@H](CCSC)NC(=O)[C@H](CCC(N)=O)NC(=O)[C@H](CCCCN)NC(=O)[C@H](CCCNC(=N)N)NC(=O)[C@H](CC(C)C)NC(=O)[C@H](CCCNC(=N)N)NC(=O)[C@@H](NC(=O)[C@H](Cc1ccc(O)cc1)NC(=O)[C@H](CC(N)=O)NC(=O)[C@H](CC(=O)O)NC(=O)[C@@H](NC(=O)[C@H](Cc1ccccc1)NC(=O)[C@@H](NC(=O)[C@H](C)NC(=O)[C@H](CC(=O)O)NC(=O)[C@H](CO)NC(=O)[C@@H](N)Cc1c[nH]cn1)C(C)C)[C@@H](C)O)[C@@H](C)O)C(C)C)C(=O)N[C@@H](CC(C)C)C(=O)N[C@@H](CC(N)=O)C(=O)NCC(=O)N[C@@H](CCCNC(=N)N)C(=O)N[C@@H](CCCCN)C(=O)N[C@@H](CCCCN)C(=O)N[C@@H](CCCNC(=N)N)C(=O)N[C@@H](CCCNC(=N)N)C(=O)N[C@@H](CCC(N)=O)C(=O)N[C@@H](CCCNC(=N)N)C(=O)N[C@@H](CCCNC(=N)N)C(=O)N[C@@H](CCCNC(=N)N)C(=O)N1CCC[C@H]1C(=O)N[C@@H](CCC(N)=O)C(=O)O [VIP-TAT]
[1]; BCCAO + eye drops, OPL almost disappeared in several BCCAO-induced degenerated retinas
  OPL preservation after BCCAO: preserved
[1]; BCCAO + eye drops, toluidine blue sections, 14 days, severe degeneration in BCCAO+SOCB
  Retinal degeneration in light microphotographs after BCCAO: only mild degeneration
[1]; BCCAO
  Retinoprotective efficacy of eye drops, overall / compared with untagged peptide: attenuate ischemic retinal degeneration via the PAC1 receptor
[1]; BCCAO, listed as TAT-bound VIP
  Retinoprotective efficacy of eye drops, overall / compared with untagged peptide: a similar degree of protection
[1]; BCCAO, listed as VIP bound to TAT peptide
  Retinoprotective efficacy of eye drops, overall / compared with untagged peptide: could effectively traverse the ocular barriers and exert a neuroprotective effect in the retina; also recorded: much stronger retinoprotective effects when bound to TAT
[1]; BCCAO, eye drops 1 μg/drop, twice a day, five consecutive days, in SOCB, right eye, left eye SOCB control, 14 days, p < 0.05 vs. BCCAO+SOCB
  Retinal layer thickness (OLM-ILM, ONL, OPL, INL, IPL) after BCCAO: significant amelioration in all retinal layers; also recorded: improved the structure of all the retinal layers
[1]; eye drops alone in sham animals, 1 μg/drop, twice a day, five consecutive days, in SOCB, histology 14 days after operation
  Change of retinal thickness in sham animals: did not cause any changes in the retinal thickness
[2]; FITC labeled peptides, eye drops 100 nmol/kg, retina separated 2 h after, fluorescence 495 nm excitation/520 nm emission, % of FITC labeled peptide mass in retina to total, means ± SEM of four experiments (7 rats per group)
  Efficiency of Traversing Eye to Retina (EtE): 3.05 ± 0.58%
[2]; PACAP-TAT/VIP-TAT vs PACAP/VIP, respectively, eye drops 100 nmol/kg, 2 h
  EtE relative to the untagged peptide: about three-fold that of PACAP/VIP
[2]; fluorescence microscopy of retina 2 h after eye drops of FITC labeled peptides (100 nmol/kg), vs PACAP/VIP
  FITC fluorescence density per area unit in the retina: much higher than in retinas treated with eye drops of PACAP/VIP
